According to patent US20070023364A1, “Tetrasilver Tetraoxide as Disinfective Agent for Cryptosporidium” (priority 2005, published 2007):
Several values for one entry are separate records, joined by “and”; a condition that tells them apart may be missing. Equal entries are not always repeated. Where two headings read alike, the source gives them in different places.

Legend:
[1] = test system: Escherichia coli, Enterococcus faecalis and Pseudomonas aeruginosa; experiment: Iodine disinfection of waterborne bacterial pathogens; type: cell-based; details: 5 ppm iodine
Experimental: (§1) Test studies confirmed these observations using doses of 5 and 15 ppm of iodine against three waterborne pathogens (Escherichia coli, Enterococcus faecalis and Pseudomonas aeruginosa). […] Unfortunately, experiments using iodine even up to 100 ppm (saturation level) were ineffective in killing Cryptosporidium oocysts when exposed for 30 and 60 min. periods, respectively.

Cryptosporidium oocysts = experiment: Iodine exposure of Cryptosporidium oocysts (killing); type: cell-based; details: iodine up to 100 ppm (saturation level), 30 and 60 min exposure
Experimental: as §1

[2] = test system: Cryptosporidium parvum oocysts
Source text: Excystation, i.e., the release of sporozoites from the oocysts, was used to assess viability of the Cryptosporidium samples. COREXIT is 2-butoxyethanol (ethyleneglycol monobutyl ether), butyl cellosolve, butyl glycol, glycol ether eb. Other ethers similar to ethyleneglycol monobutyl ether may be used. This dispersant is composed of about 48% nonionic surfactants, including ethoxylated sorbitan mono- and trioleates (Tween 80 and Tween 85) and sorbitan monooleate (Span 80), about 35% anionic surfactants, including sodium dioctyl sulfosuccinate (AOT), and about 17% ethylene glycol monobutyl ether as a solvent EMULPHOR is an emulsifier derivative of corn oil. EMULPHOR may also be used rather than ALKAMUS. ALKAMUS is a polyethoxylated castor oil 40 mole ethoxlate. EMULPHOR from BASF, is a high molecular weight ether sulphate.

Cryptosporidium = details: ozone-exposed Cryptosporidium, accepted by USEPA; cited from earlier work
[3] = test system: Cryptosporidium parvum oocysts; remark: listed apart in the source
Experimental: Disinfection was assessed using cell culture infectivity as the test, this procedure being more definitive than excystation. […] The 90% inactivation is a Log10 reduction of 1.0.
Infectivity in cell cultures was used in this study. Although excystation is an acceptable way to assay for live sporozoites, infectivity in cell cultures is a definitive assay generally accepted by the scientific community for assessing Cryptosporidium oocyst viability/non-viability. This assay is virtually equivalent to using living mammals to confirm infectious organisms, but it provides better quantitation of viable/infectious organisms.

E. coli = details: activated TTO, kill within 10 min or less; cited from earlier work
avian species = details: USEPA scientific findings; cited from earlier work
aquatic species = details: USEPA scientific findings; cited from earlier work
[4] = activated tetrasilver tetraoxide; cited from earlier work
[5] = 2 ppm tetrasilver tetraoxide and 10 ppm potassium monopersulfate, excystation
[6] = 3 mg/L TTO, 15 mg/L persulfate, 1% cocktail, 60 min
[7] = 2 and 3 mg/L activated TTO, irrespective of cocktail used
[8] = activated 2 mg/L TTO in 1.0% cocktail, 60 min (study with 2, 5, 10 mg/L)

II [iodine]
log10 reduction ([1]; within 5 min): 6 log10 | log10 inactivation ([1]; within 10 min of exposure): ≤ 8 log10 | killing of Cryptosporidium oocysts (Cryptosporidium oocysts): ineffective | inactivation of oocysts ([2]; saturated iodine solution with 1% cocktail of COREXIT and ALKAMUS EL 620, 3 hours): ineffective

O=[O+][O-] [ozone]
Log10 reduction (Cryptosporidium): 2.0 Log 10

[Ag+].[Ag+].[Ag+].[Ag+].[O-2].[O-2].[O-2].[O-2] [tetrasilver tetraoxide]
inactivation of oocysts ([2]; 1% cocktail, 3 hours, 1×10^3 oocysts in 50 ml HMEM): 19.4% | viable oocysts by excystation ([2]; 2 ppm tetrasilver tetraoxide and 10 ppm potassium monopersulfate): 1.2+/−1.1% | kill [2, 5]: 98.8% | log10 reduction in infectious Cryptosporidium parvum [2, 5]: 2 log10 and 2.0 log10 | Average Infectious Oocysts × 100,000 ([3]; 1 mg/L TTO): 68 × 100,000 | Average Log10 Reduction of Viable Oocysts (Inactivation) ([3]; 1 mg/L TTO): 0.23 Log10 | Average Percent Oocyst Inactivation of all Variables ([3]; 1 mg/L TTO): 32.0% | Log10 reduction ([3]; 1 mg/L TTO, 0% cocktail, 60 min): 0.6 Log10 | inactivation ([3]; 1 mg/L TTO, 0% cocktail, 60 min, 1.2×10^7 oocysts/50 mL): 75% | Infectious Oocysts × 100,000 using 1% Cocktail ([3]; 1 mg/L TTO, 5 mg/L persulfate, 1% cocktail): 100 × 100,000 | Average Infectious Oocysts × 100,000 ([3]; 2 mg/L TTO): 35 × 100,000 | Average Log10 Reduction of Viable Oocysts (Inactivation) ([3]; 2 mg/L TTO): 0.83 Log10 | Average Percent Oocyst Inactivation of all Variables ([3]; 2 mg/L TTO): 65.0% | Infectious Oocytes × 100,000 using 0% Cocktail ([3]; 2 mg/L TTO, 10 mg/L persulfate, 0% cocktail): 2 × 100,000 | Log10 reduction ([3]; 2 mg/L TTO, 10 mg/L persulfate, 0% cocktail, 60 min): 1.8 Log10 | Infectious Oocysts × 100,000 using 1% Cocktail ([3]; 2 mg/L TTO, 10 mg/L persulfate, 1% cocktail): 35 × 100,000 | Average Infectious Oocysts × 100,000 ([3]; 3 mg/L TTO): 13 × 100,000 | Average Log10 Reduction of Viable Oocysts (Inactivation) ([3]; 3 mg/L TTO): 1.2 Log10 | Average Percent Oocyst Inactivation of all Variables ([3]; 3 mg/L TTO): 87.0% | Log10 reduction ([3]; 3 mg/L TTO, 0% cocktail, 60 min): 1.3 Log10 | Infectious Oocysts × 100,000 using 1% Cocktail ([3]; 3 mg/L TTO, 15 mg/L persulfate, 1% cocktail): 2 × 100,000 | Log10 oocyst reduction [3, 6]: 1.8 Log10 | inactivation / kill of oocysts [3, 6]: 98% | effectiveness of inactivation with cocktail versus average inactivation of infectious oocysts ([3]; 3 mg/L TTO, cocktail present): 6.5 times | Log10 reduction [3, 7]: 1.8 Log10 | kill of oocysts [3, 7]: 98% | Log10 reduction [3, 8]: 1.0 Log10 | oocyst inactivation relative to stock oocyst control [3, 8]: 90% | inactivation ([3]; cocktail concentration raised to 2%, 60 min): Lesser, but significant inactivations | Log10 reduction/inactivation ([3]; other test matrices (2, 5, 10 mg/L, with and without 1% cocktail), 60 min): less than a one Log10 reduction/inactivation | concentration that kills the organisms (E. coli): 1-2 ppm | toxicity to avian species (avian species): practically non-toxic | toxicity to aquatic species (aquatic species): toxic | mutagenicity [4]: not mutagenic
